Consider nine molecules from patent US4061776A, “Pharmaceutically active 2-omega-aminoalkoxydiphenyl ethers” (Mitsubishi Chemical Industries Ltd., priority 1976, dated 1977).

Counter-ions that a name gives are not always drawn.

Series [1] has as its system reserpine induced hypothermia. Briefly: antagonism of reserpine (5 mg/kg i.p.) induced hypothermia (antireserpine/antidepressant activity) in mice. The series is classed as in vivo. Conditions: for Antireserpine Activity in Mice, Relative Potency: reserpine 5 mg/kg i.p., Amitriptyline = 1; for antidepressant activity (in words): reserpine hypothermia.
Procedure: (§1) The compounds were administered intraperitoneally and activities of the compounds were compared with those of Amitriptyline.
A further series can be described thus: in vivo. Conditions: mouse, ip.
The subject of a further series is mice. Conditions: i.p.
The subject of series [2] is electroshock induced tonic extensor. Briefly: anticonvulsant activity, antagonism of electroshock induced tonic extensor in mice. The series is classed as in vivo. Conditions: Mus musculus, ip, dose preventing 50% of response, read-out: Anti-Convulsant Activity ED50.
Procedure: as §1
Series [3] concerns neurological deficit as measured by traction test. Particulars: mouse, in vivo, ip.
Procedure: as §1
The subject of series [4] is tremorine induced tremor. Conditions: mouse, in vivo, ip.
Procedure: as §1
For series [5], the system named is tremorine induced tremor. Briefly: central anticholinergic effect, tremorine induced tremor in mice. Conditions: Mus musculus, ip, read-out: Antitremorine Effect ED50.
Procedure: as §1
The test system of series [6] is spontaneous motor activity. Briefly: CNS depressant activity, spontaneous motor activity measured by ANIMEX apparatus in mice. Conditions: Mus musculus, ip, read-out: Spontaneous Motor Activity Depression ED50.
Procedure: as §1
The subject of series [7] is neurological deficit as measured by traction test. Briefly: CNS depressant activity, neurological deficit by traction test (muscle relaxant action) in mice. Particulars: Mus musculus, ip, read-out: Muscle Relaxant Action ED50.
Procedure: as §1

In the case of `CN(C)CCCOc1ccccc1Oc1ccccc1` [2-(3-dimethylaminopropoxy)diphenyl ether hydrochloride, reference compound], the “Antireserpine Activity in Mice, Relative Potency” value in series [1] is 0.14.

Regarding `CNCCCCCOc1ccccc1Oc1ccccc1` [2-(5-methylaminopentyloxy)diphenyl ether hydrochloride], in series [1], the “Antireserpine Activity in Mice, Relative Potency” value amounted to 0.57 and the “antidepressant activity (in words)” value was “best activity of all compounds of the present invention tested”. In addition, the LD50 in the series “in vivo” was 85 mg/kg.

Regarding `CN(C)CCCCOc1ccccc1Oc1ccccc1` [2-(4-dimethylaminobutoxy)diphenyl ether hydrochloride], in series [1], the “Antireserpine Activity in Mice, Relative Potency” value came to 0.58 and the “antidepressant activity (in words)” value is reported as “best activity of all compounds of the present invention tested”. In “in vivo”, this molecule displayed an LD50 of 92 mg/kg.

For the molecule `CN(C)CCC=C1c2ccccc2CCc2ccccc21` [Amitriptyline, reference compound], the LD50 with mice (Litchfield-Wilcoxon method) was found to be 65 mg/kg i.p.

On to `c1ccc(Oc2ccccc2OCCCCN2CCOCC2)cc1` [2-(4-morpholinobutoxy)diphenyl ether hydrochloride, reference compound], for which the “Antireserpine Activity in Mice, Relative Potency” value in series [1] amounted to 0.21.

Regarding `NCCCCOc1ccccc1Oc1ccccc1` [2-(4-aminobutoxy)diphenyl ether hydrochloride], the “Antireserpine Activity in Mice, Relative Potency” value in series [1] stood at 0.28.

Take `CN(C)CCCCCOc1ccccc1Oc1ccccc1` [2-(5-dimethylaminopentyloxy)diphenyl ether hydrochloride]: the “Antireserpine Activity in Mice, Relative Potency” value in series [1] was 0.24.

As for `CNCCCCOc1ccccc1Oc1ccccc1` [2-(4-methylaminobutoxy)diphenyl ether hydrochloride], the “Antireserpine Activity in Mice, Relative Potency” value in series [1] came to 1.10. In addition, in series [1], the “antidepressant activity (in words)” value is on record as “best activity of all compounds of the present invention tested”. Besides, the “antireserpine activity compared with Amitriptyline (in words)” value in series [1] (versus Amitriptyline) is reported as “comparable to that of Amitriptyline”. The ED50 (as a rule, the dose at which the effect has come halfway, by size or by number of responders) in series [2] turned out to be 32 mg/kg; with tremorine induced tremor [5], 30 mg/kg; in series [6], 60 mg/kg; in series [7], 60 mg/kg. Also, the “toxicity (in words)” value in the series on mice is reported as “low toxicity”. Further, in series [3], the “CNS depressant action (in words)” value is reported as “weak”. Further, in the series with tremorine induced tremor [4], the “anticholinergic action (in words)” value is reported as “weak”. Also, the LD50 in the series “in vivo” is 100 mg/kg.

Regarding `CNCCCOc1ccccc1Oc1ccccc1` [2-(3-methylaminopropoxy)diphenyl ether hydrochloride, reference compound], in series [1], the “Antireserpine Activity in Mice, Relative Potency” value was 0.28.
